Test system: CD1 female mouse brain lipidome
Assay: Brain-region lipid levels (HPLC/MS/MS lipidomics) 2 h after single i.p. 3 mg/kg CP 55,940 vs vehicle
Format: in vivo
Set-up: N-arachidonoyl phenylalanine level, Mean / N-stearoyl tryptophan level, Mean / N-stearoyl proline level, Mean / N-stearoyl leucine level, Mean / N-stearoyl phenylalanine level, Mean / N-stearoyl serine level, Mean / N-stearoyl methionine level, Mean: unit: moles per gram
Settings: thalamus, 3 mg/kg CP 55,940
Experimental: The Bloomington Institutional Animal Care and Use Committee of Indiana University reviewed and approved the animal procedures. Female mice from the CD1 strain were utilized to match our study examining THC’s effects on the brain lipidome ([Leishman et al., 2018]). Mice were given a single i.p. injection of either 3 mg/kg CP or 1:1:18 cremophor:ethanol:saline vehicle (please refer to the section “3 mg/kg CP Is Relevant for Synthetic Cannabinoid Abuse and Has Stronger Effects on the Female Mouse Brain Lipidome During Adolescence” for a justification of dose and use of female mice). Three different age groups were given injections: PND 35 and PND 50 adolescents, and adult mice (PND 113). At least eight mice in each age group received CP and at least eight received vehicle. Matching the THC study time course ([Leishman et al., 2018]), mice were sacrificed via rapid decapitation 2 h after injection. Brains were immediately removed and flash-frozen in liquid nitrogen, and then stored at -80°C until dissections were performed. Brains were dissected on an ice-cold dissection plate into the following regions: STR, HIPP, CER, THAL, CTX, HYP, MID, and STEM. These abbreviations for these brain areas will be used exclusively when discussing the results generated by these specific dissections. Each dissected area was immediately placed in liquid nitrogen and then stored at -80°C until used for lipid extraction.
Tissue extracts were performed as previously described ([Bradshaw et al., 2006]; [Stuart et al., 2013]; [Raboune et al., 2014]; [Leishman et al., 2016a],[b], [2017], [2018]). First, samples were shock frozen in liquid nitrogen, weighed, and transferred to a centrifuge tube. The mass of the largest sample was multiplied by 50 to determine how many milliliters of HPLC-grade methanol (Fisher, Fair Lawn, NJ, United States) to add. Then, samples were spiked with 500 pmol deuterium-labeled NAGly (d8NAGly; Cayman Chemical, Ann Arbor, MI, United States). Samples were placed on ice in darkness for 2 h then individually homogenized and centrifuged at 19,000 × g for 20 min at 20°C. Supernatants were diluted with HPLC water (purified in house) to make a solution of 75% water, 25% supernatant. Lipids were partially purified on C18 solid phase extraction columns (Agilent, Palo Alto, CA, United States). A series of four elutions with 1.5 mL of 60%, 75%, 85%, and 100% methanol were collected ([Stuart et al., 2013]; [Leishman et al., 2016a],[b], [2018]).
As previously described ([Bradshaw et al., 2006]; [Tan et al., 2006]; [Smoum et al., 2010]; [Stuart et al., 2013]; [Tortoriello et al., 2013]; [Raboune et al., 2014]; [Leishman et al., 2016a],[b], [2017], [2018]), samples were analyzed using an Applied Biosystems API 3000 triple quadrupole mass spectrometer with electrospray ionization (Foster City, CA, United States). Using an Agilent XDB-C18 reversed phase analytical column and optimized mobile phase gradients, 20 μL from each elution were chromatographed. Two Shimadzu 10ADvp pumps (Columbia, MD, United States) provided the pressure for gradient elution. Mobile phase A: 20% methanol, 80% water (v/v) and 1 mM ammonium acetate (Sigma, St. Louis, MO, United States). Mobile phase B: 100% methanol, 1 mM ammonium acetate. Every method run began with 0% mobile phase B, reached 100% mobile phase B flowing at 0.2 mL/min, and gradually returned to 0% mobile phase B.
This screening library will be referred to as the lipidome when discussing data from this study. HPLC/MS/MS data were analyzed using Analyst software (Applied Biosystems) ([Bradshaw et al., 2006]; [Tan et al., 2006]; [Stuart et al., 2013]; [Tortoriello et al., 2013]; [Raboune et al., 2014]; [Leishman et al., 2016a],[b], [2017], [2018]). Chromatograms (Supplementary Figure 3) were generated by determining the retention time of analytes from the analytical column with a [M-1] or [M+1] parent peak and a fragmentation peak corresponding to the programmed values. […]

With `CCCCCCC(C)(C)c1ccc([C@@H]2C[C@H](O)CC[C@H]2CCCO)c(O)c1` [CP 55,940] the “N-oleoyl glycine Direction (relative to Veh)” value (PND 35) was “↓”, the “N-oleoyl glycine Magnitude (x Veh level)” value (PND 35) was 0.91 x Veh level and the “N-oleoyl leucine Direction (relative to Veh)” value (PND 35) was “↑”. For the same compound, the “N-oleoyl leucine Magnitude (x Veh level)” value (PND 35) was 1.27 x Veh level, the “N-oleoyl valine Direction (relative to Veh)” value (PND 35) was “↑” and the “N-oleoyl valine Magnitude (x Veh level)” value (PND 35) was 1.44 x Veh level. For the same compound, the “N-palmitoyl GABA Direction (relative to Veh)” value (PND 35) was “↑”, the “N-palmitoyl GABA Magnitude (x Veh level)” value (PND 35) was 1.21 x Veh level and the “N-palmitoyl leucine, Direction (relative to Veh)” value (PND 35) was “↑”. For the same compound, the “N-palmitoyl leucine, Magnitude (x Veh level)” value (PND 35) was 1.42 x Veh level, the “N-palmitoyl phenylalanine Direction (relative to Veh)” value (PND 35) was “↑” and the “N-palmitoyl phenylalanine Magnitude (x Veh level)” value (PND 35) was 1.35 x Veh level. For the same compound, the “N-palmitoyl tyrosine Magnitude (x Veh level)” value (PND 35) was 1.34 x Veh level, the “N-palmitoyl tyrosine, Direction (relative to Veh)” value (PND 35) was “↑” and the “N-palmitoyl valine Direction (relative to Veh)” value (PND 35) was “↑”. For the same compound, the “N-palmitoyl valine Magnitude (x Veh level)” value (PND 35) was 1.79 x Veh level, the “N-stearoyl serine Direction (relative to Veh)” value (PND 35) was “↓” and the “N-stearoyl serine Magnitude (x Veh level)” value (PND 35) was 0.83 x Veh level. The “N-stearoyl tyrosine Direction (relative to Veh)” value (PND 35) was “↓”, the “N-stearoyl tyrosine Magnitude (x Veh level)” value (PND 35) was 0.81 x Veh level and the “N-stearoyl valine Direction (relative to Veh)” value (PND 35) was “↑”. For the same compound, the “N-stearoyl valine Magnitude (x Veh level)” value (PND 35) was 1.26 x Veh level, the “PGE2 Direction (relative to Veh)” value (PND 35) was “↑” and the “PGE2 Magnitude (x Veh level)” value (PND 35) was 1.16 x Veh level. For the same compound, the “phosphoLEA Direction (relative to Veh)” value (PND 35) was “↑”, the “phosphoLEA Magnitude (x Veh level)” value (PND 35) was 1.24 x Veh level and the “2-arachidonoyl glycerol level, Mean” value (PND 35 adolescent female mice) was 3.59E-10. The “2-linoleoyl glycerol level, Mean” value (PND 35 adolescent female mice) was 1.52E-10, the “2-oleoyl glycerol level, Mean” value (PND 35 adolescent female mice) was 1.68E-09 and the “2-palmitoyl glycerol level, Mean” value (PND 35 adolescent female mice) was 5.34E-10. The “6-ketoPGF1α level, Mean” value (PND 35 adolescent female mice) was 1.42E-11, the “Arachidonic acid level, Mean” value (PND 35 adolescent female mice) was 2.14E-09 and the “Linoleic acid level, Mean” value (PND 35 adolescent female mice) was 5.7E-10. The “N- stearoyl valine level, Mean” value (PND 35 adolescent female mice) was 1.07E-12, the “N-arachidonoyl GABA level, Mean” value (PND 35 adolescent female mice) was 2.62E-11 and the “N-arachidonoyl alanine level, Mean” value (PND 35 adolescent female mice) was 1.02E-11. The “N-arachidonoyl dopamine level, Mean” value (PND 35 adolescent female mice) was “BDL”, the “N-arachidonoyl ethanolamine level, Mean” value (PND 35 adolescent female mice) was 2.8E-11 and the “N-arachidonoyl glycine level, Mean” value (PND 35 adolescent female mice) was 4.62E-11. For the same compound, the “N-arachidonoyl phenylalanine level, Mean” value (PND 35 adolescent female mice) was 1.31E-12, the “N-arachidonoyl serine level, Mean” value (PND 35 adolescent female mice) was 6.28E-12 and the “N-arachidonoyl taurine level, Mean” value (PND 35 adolescent female mice) was 5.99E-11. The “N-arachidonoyl tryptophan level, Mean” value (PND 35 adolescent female mice) was “BDL”, the “N-arachidonoyl tyrosine level, Mean” value (PND 35 adolescent female mice) was 7.9E-13 and the “N-docosahexaenoyl GABA level, Mean” value (PND 35 adolescent female mice) was 2.9E-12. For the same compound, the “N-docosahexaenoyl alanine level, Mean” value (PND 35 adolescent female mice) was 4.07E-12, the “N-docosahexaenoyl ethanolamine level, Mean” value (PND 35 adolescent female mice) was 4.03E-11 and the “N-docosahexaenoyl glycine level, Mean” value (PND 35 adolescent female mice) was 1.76E-11. For the same compound, the “N-docosahexaenoyl leucine level, Mean” value (PND 35 adolescent female mice) was 8.15E-13, the “N-docosahexaenoyl phenylalanine level, Mean” value (PND 35 adolescent female mice) was 1.14E-12 and the “N-docosahexaenoyl proline level, Mean” value (PND 35 adolescent female mice) was “BDL”. For the same compound, the “N-docosahexaenoyl serine level, Mean” value (PND 35 adolescent female mice) was 2.59E-11, the “N-docosahexaenoyl tyrosine level, Mean” value (PND 35 adolescent female mice) was 7.13E-13 and the “N-docosahexaenoyl valine level, Mean” value (PND 35 adolescent female mice) was 2E-13. For the same compound, the “N-linoleoyl GABA level, Mean” value (PND 35 adolescent female mice) was 9.8E-13, the “N-linoleoyl alanine level, Mean” value (PND 35 adolescent female mice) was 1.66E-12 and the “N-linoleoyl ethanolamine level, Mean” value (PND 35 adolescent female mice) was 5.07E-11. The “N-linoleoyl glycine level, Mean” value (PND 35 adolescent female mice) was 4.36E-12, the “N-linoleoyl leucine level, Mean” value (PND 35 adolescent female mice) was 3.45E-13 and the “N-linoleoyl methionine level, Mean” value (PND 35 adolescent female mice) was “BDL”. The “N-linoleoyl proline level, Mean” value (PND 35 adolescent female mice) was “BDL”, the “N-linoleoyl serine level, Mean” value (PND 35 adolescent female mice) was 5.67E-11 and the “N-linoleoyl tryptophan level, Mean” value (PND 35 adolescent female mice) was “BDL”. For the same compound, the “N-linoleoyl tyrosine level, Mean” value (PND 35 adolescent female mice) was “BDL”, the “N-nervonoyl valine level, Mean” value (PND 35 adolescent female mice) was “BDL” and the “N-oleoyl GABA level, Mean” value (PND 35 adolescent female mice) was 5.58E-12. For the same compound, the “N-oleoyl alanine level, Mean” value (PND 35 adolescent female mice) was 7.79E-12, the “N-oleoyl dopamine level, Mean” value (PND 35 adolescent female mice) was “BDL” and the “N-oleoyl ethanolamine level, Mean” value (PND 35 adolescent female mice) was 1.71E-10. For the same compound, the “N-oleoyl glycine level, Mean” value (PND 35 adolescent female mice) was 2.36E-11, the “N-oleoyl leucine level, Mean” value (PND 35 adolescent female mice) was 2.09E-12 and the “N-oleoyl methionine level, Mean” value (PND 35 adolescent female mice) was 1.17E-12. The “N-oleoyl phenylalanine level, Mean” value (PND 35 adolescent female mice) was 1.2E-12, the “N-oleoyl serine level, Mean” value (PND 35 adolescent female mice) was 3.24E-10 and the “N-oleoyl tryptophan level, Mean” value (PND 35 adolescent female mice) was 1.87E-13. The “N-oleoyl tyrosine level, Mean” value (PND 35 adolescent female mice) was 4.87E-13, the “N-oleoyl valine level, Mean” value (PND 35 adolescent female mice) was 9.01E-13 and the “N-palmitoyl GABA level, Mean” value (PND 35 adolescent female mice) was 1.41E-11. The “N-palmitoyl alanine level, Mean” value (PND 35 adolescent female mice) was 1.21E-11, the “N-palmitoyl ethanolamine level, Mean” value (PND 35 adolescent female mice) was 8.69E-11 and the “N-palmitoyl glycine level, Mean” value (PND 35 adolescent female mice) was 4.99E-11. The “N-palmitoyl leucine level, Mean” value (PND 35 adolescent female mice) was 4.1E-12, the “N-palmitoyl methionine level, Mean” value (PND 35 adolescent female mice) was 1.84E-12 and the “N-palmitoyl phenylalanine level, Mean” value (PND 35 adolescent female mice) was 2.75E-12. For the same compound, the “N-palmitoyl proline level, Mean” value (PND 35 adolescent female mice) was 1.05E-12, the “N-palmitoyl serine level, Mean” value (PND 35 adolescent female mice) was 1.05E-10 and the “N-palmitoyl tryptophan level, Mean” value (PND 35 adolescent female mice) was 4.31E-13. For the same compound, the “N-palmitoyl tyrosine level, Mean” value (PND 35 adolescent female mice) was 1.31E-12, the “N-palmitoyl valine level, Mean” value (PND 35 adolescent female mice) was 2.65E-12 and the “N-stearoyl GABA level, Mean” value (PND 35 adolescent female mice) was 1.05E-11. For the same compound, the “N-stearoyl alanine level, Mean” value (PND 35 adolescent female mice) was 1.24E-11, the “N-stearoyl ethanolamine level, Mean” value (PND 35 adolescent female mice) was 1.97E-11 and the “N-stearoyl glycine level, Mean” value (PND 35 adolescent female mice) was 2.74E-11. The “N-stearoyl leucine level, Mean” value (PND 35 adolescent female mice) was 1.66E-12, the “N-stearoyl methionine level, Mean” value (PND 35 adolescent female mice) was 1.9E-12 and the “N-stearoyl phenylalanine level, Mean” value (PND 35 adolescent female mice) was 2.22E-12. The “N-stearoyl proline level, Mean” value (PND 35 adolescent female mice) was 5.08E-13, the “N-stearoyl serine level, Mean” value (PND 35 adolescent female mice) was 3.19E-11 and the “N-stearoyl tryptophan level, Mean” value (PND 35 adolescent female mice) was 1.26E-12. The “N-stearoyl tyrosine level, Mean” value (PND 35 adolescent female mice) was 1.15E-13, the “Oleic acid level, Mean” value (PND 35 adolescent female mice) was 1.67E-09 and the “PGE2 level, Mean” value (PND 35 adolescent female mice) was 6.31E-10. For the same compound, the “PhosphoLEA level, Mean” value (PND 35 adolescent female mice) was 2.93E-11.
